From ChEMBL document CHEMBL1201862, “PubChem BioAssay data set” (2004)
Several values for one entry are separate records, joined by “and”; a condition that tells them apart may be missing. Identical values can stand only once.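 In this assay, cells in 96-well plates receive the compound at five concentrations for 48 hours. Endpoints are linearly interpolated between the surrounding concentrations. GI50 marks 50% less growth.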 Activity calls are given as the source filed them. Rule as the data show it: active = GI50 up to about 1.1 µM and inactive = higher.

Assays:
Experiment in all cases: inhibition of tumour cell growth, NCI panel, 48 h
HT-29 = tested on: HT-29
MCF7 = tested on: MCF7
EKVX = tested on: EKVX
OVCAR-5 = tested on: OVCAR-5
BT-549 = tested on: BT-549
M14 = tested on: M14
UO-31 = tested on: UO-31
U-251 = tested on: U-251
A498 = tested on: A498
HCT-15 = tested on: HCT-15
UACC-62 = tested on: UACC-62
786-0 = tested on: 786-0
MDA-MB-435 = tested on: MDA-MB-435
SNB-75 = tested on: SNB-75
SF-268 = tested on: SF-268
SR = tested on: SR
SF-539 = tested on: SF-539
NCI-H460 = tested on: NCI-H460
RXF 393 = tested on: RXF 393
OVCAR-4 = tested on: OVCAR-4

Compound | GI50 (HT-29) | GI50 (MCF7) | GI50 (EKVX) | GI50 (OVCAR-5) | GI50 (BT-549) | GI50 (M14) | GI50 (UO-31) | GI50 (U-251) | GI50 (A498) | GI50 (HCT-15) [µM] | GI50 (UACC-62) | GI50 (786-0) | GI50 (MDA-MB-435) | GI50 (SNB-75) | GI50 (SF-268) | GI50 (SR) | GI50 (SF-539) | GI50 (NCI-H460) | GI50 (RXF 393) | GI50 (OVCAR-4)
CC(=O)OCC(OC(C)=O)C(OC(C)=O)C(/C=N\Nc1nc2ccccc2c(=O)[nH]1)OC(C)=O (stereo unspecified) | 26.2 µM (inactive) and 41.6 µM (inactive) | > 100 µM (inactive) | > 100 µM (inactive) | > 100 µM (inactive) | > 100 µM (inactive) | > 100 µM (inactive) | > 100 µM (inactive) | > 100 µM (inactive) | > 100 µM (inactive) | > 100 | > 100 µM (inactive) | > 100 µM (inactive) | > 100 µM (inactive) | > 100 µM (inactive) | > 100 µM (inactive) | > 100 µM (inactive) | > 100 µM (inactive) | > 100 µM (inactive) |  | 
O=C(CN1CCOCC1)NC1=Nc2ncccc2C(=O)NN1 | > 10 µM (inactive) | > 10 µM (inactive) | > 10 µM (inactive) | > 10 µM (inactive) | > 10 µM (inactive) | > 10 µM (inactive) | > 10 µM (inactive) | > 10 µM (inactive) | > 10 µM (inactive) | > 10 | > 10 µM (inactive) | > 10 µM (inactive) | > 10 µM (inactive) | > 10 µM (inactive) | > 10 µM (inactive) | > 10 µM (inactive) | > 10 µM (inactive) | > 10 µM (inactive) | > 10 µM (inactive) | 
CCOC(=O)CN1C(=O)C(=O)N(c2ccc(OC)c3ccccc23)C1=O | > 100 µM (inactive) | > 100 µM (inactive) | > 100 µM (inactive) | > 100 µM (inactive) | > 100 µM (inactive) | > 100 µM (inactive) | 34.6 µM (inactive) | > 100 µM (inactive) |  | > 100 | > 100 µM (inactive) | > 100 µM (inactive) | > 100 µM (inactive) | > 100 µM (inactive) | > 100 µM (inactive) | > 100 µM (inactive) | > 100 µM (inactive) |  | > 100 µM (inactive) | > 100 µM (inactive)
CCOC(=O)C1(N)CCc2[nH][nH]c(=O)c2C1 (stereo unspecified) | > 100 µM (inactive) | > 100 µM (inactive) | > 100 µM (inactive) | > 100 µM (inactive) | > 100 µM (inactive) | > 100 µM (inactive) | > 100 µM (inactive) | > 100 µM (inactive) | > 100 µM (inactive) | > 100 | > 100 µM (inactive) | > 100 µM (inactive) | > 100 µM (inactive) | > 100 µM (inactive) |  | > 100 µM (inactive) | > 100 µM (inactive) | > 100 µM (inactive) |  | > 100 µM (inactive)
COc1cccc(-c2ccc3c4c2O[C@H]2C(=O)CC[C@@]5(O)[C@@H](C3)N(CC3CC3)CC[C@]425)c1 | 11.6 µM (inactive) | 16 µM (inactive) | 17.1 µM (inactive) | 17.9 µM (inactive) | 18.4 µM (inactive) | 14.5 µM (inactive) | 14.5 µM (inactive) | 16.2 µM (inactive) | 18.7 µM (inactive) | 13.6 | 17.1 µM (inactive) | 16.1 µM (inactive) | 12.9 µM (inactive) |  | 20.8 µM (inactive) | 10.3 µM (inactive) | 14.7 µM (inactive) | 28.9 µM (inactive) | 8.53 µM (inactive) | 15.1 µM (inactive)
CCOC(=O)N(C)CCC1CC=CC(=O)C1c1cccc(OC)c1OC (stereo unspecified) | 13.8 µM (inactive) | 16.9 µM (inactive) | 25.8 µM (inactive) | 17.3 µM (inactive) | 15 µM (inactive) | 19.5 µM (inactive) | 16.6 µM (inactive) | 16.7 µM (inactive) | 33.3 µM (inactive) | 14 | 15.6 µM (inactive) | 17 µM (inactive) | 10.6 µM (inactive) |  | 19.9 µM (inactive) | 14.3 µM (inactive) | 9.91 µM (inactive) | 16.7 µM (inactive) | 10.5 µM (inactive) | 28 µM (inactive)
